Test results taken from patent US5965088A, “Method for providing rapid disinfection of contact lenses” (priority 1997, dated 1999).

Tested on: Fusarium solani (ATCC 36031)
Test: Antimicrobial efficacy (stand-alone log reduction), F. solani
Type: cell-based
Settings: for log reduction at 4 µg/mL: 4.0 ppm alexidine in ReNu MPS
Method: This Example illustrates the microbiocidal efficacy of solutions according to the present invention. The antimicrobial efficacy of each of various compositions for the chemical disinfection of contact lenses was evaluated. Microbial challenge inoculums were prepared using Pseudomonas aeruginosa (ATCC 9027), Staphylococcus aureus (ATCC 6538), Serratia marcescens (ATCC 13880), Candida albicans (ATCC 10231), and Fusarium solani (ATCC 36031). The test organisms were cultured on appropriate agar and the cultures were harvested using sterile DPBST (Dulbecco's Phosphate Buffered Saline plus 0.05% w/v polysorbate 80) or a suitable diluent and transferred to a suitable vessel. Spore suspensions were filtered through sterile glass wool to remove hyphal fragments. Serratia marcescens, as appropriate, was filtered (eg., through a 1.2 μ filter) to clarify the suspension. After harvesting, the suspension was centrifuged at no more than 5000× g for a maximum of 30 minutes at 20-25° C. The supernatant was poured off and resuspended in DPBST or other suitable diluent. The suspension was centrifuged a second time, and resuspended in DPBST or other suitable diluent. All challenge bacterial and fungal cell suspensions were adjusted with DPBST or other suitable diluent to 1×10^7 -10^8 cfu/mL. The appropriate cell concentration may be estimated by measuring the turbidity of the suspension, for example using a spectrophotometer at a preselected wavelength, for example 490 nm. One tube was prepared containing a minimum of 10 mL of test solution per challenge organism. Each tube of the solution to be tested was inoculated with a suspension of the test organism sufficient to provide a final count of 1.0×10^5 -10^6 cfu/mL, the volume of the inoculum not exceeding 1% of the sample volume. Dispersion of the inoculum was ensured by vortexing the sample for at least 15 seconds. The inoculated product was stored at 10-25° C. Aliquots in the amount of 1.0 mL were taken of the inoculated product for determination of viable counts after certain time periods of disinfection. The time points for the bacteria were 25, 50, 75, and 100% of the minimum disinfection time. Yeast and mold were tested at an additional timepoint of at least 400% of the minimum disinfection time. The suspension was mixed well by vortexing vigorously for at least 5 second. The 1.0 mL aliquots removed at the specified time intervals were subjected to a suitable series of decimal dilutions in validated neutralizing media. The suspensions were mixed vigorously and incubated for a suitable period of time to allow for neutralization of the microbial agent. The viable count of organisms was determined in appropriate dilutions by preparation of triplicate plates of trypticase soy (TSA) agar for bacteria and Sabouraud dextrose agar (SDA) for mold and yeast. The bacterial recovery plates were incubated at 30-35° C. for 2-4 days. The yeast was incubated at 20-30° C. for 2-4 days and mold recovery plates at 20-25° C. for 3-7 days. The average number of colony forming units was determined on countable plates. Countable plates refer to 30-300 cfu/plates for bacteria and yeast, and 8 to 80 cfu/plate for mold except when colonies are observed only for the 10^0 or 10^-1 dilution plates. The microbial reduction was then calculated at the specified time points. […] Following inoculation in a validated neutralizing broth and incubation for an appropriate period of time, the inoculum control must be between 1.0×10^5 -1.0×10^6 cfu/mL
The solutions were evaluated based on the performance requirement referred to as the "Stand-Alone Procedure for Disinfecting Products" (hereafter the "stand-alone test") and is based on the Disinfection Efficacy Testing for contact lens care products under the Draft Premarket Notification (510(k)) Guidance Document For Contact Lens Care Products dated Apr. 1, 1996, prepared by the U.S. Food and Drug Administration, Division of Ophthalmic Devices. […]

## CCCCC(CC)CNC(=N)NC(=N)NCCCCCCNC(=N)NC(=N)NCC(CC)CCCC.Cl.Cl (centres unmarked) [Alexidine.2HCl, 1,1 '-hexamethylenebis(5-(2-ethylhexyl)-biguanide) dihydrochloride]
ATCC36031, 2.5 min, aged 18 months, Exp. 1, 2.5 min
  log reduction at 4 ppm: 2.5
ATCC36031, 2.5 min, aged 18 months, Exp. 2, 2.5 min
  log reduction at 4 ppm: 2.5
ATCC36031, 2.5 min, aged 18 months, Exp. 3, 2.5 min
  log reduction at 4 ppm: 2.2
ATCC36031, 5 min, aged 18 months, Exp. 1, 5.0 min
  log reduction at 4 ppm: 4.3
ATCC36031, 5 min, aged 18 months, Exp. 2, 5.0 min
  log reduction at 4 ppm: 4.1
ATCC36031, 5 min, aged 18 months, Exp. 3, 5.0 min
  log reduction at 4 ppm: 2.1
ATCC36031, 0.125 h, aged 18 months, Exp. 1, 7.5 min
  log reduction at 4 ppm: 4.6
ATCC36031, 0.125 h, aged 18 months, Exp. 2, 7.5 min
  log reduction at 4 ppm: 4.4
ATCC36031, 0.125 h, aged 18 months, Exp. 3, 7.5 min
  log reduction at 4 ppm: 2.4
ATCC36031, 10 min, aged 18 months, Exp. 1, 10.0 min
  log reduction at 4 ppm: > 4.6
ATCC36031, 10 min, aged 18 months, Exp. 2, 10.0 min
  log reduction at 4 ppm: 4.5
ATCC36031, 10 min, aged 18 months, Exp. 3, 10.0 min
  log reduction at 4 ppm: 2.5
ATCC36031, 0.25 h, Ex. 6, aged 19 months at 25 °C, 15 min
  log reduction at 4 ppm: 3.4
ATCC36031, 0.25 h, Ex. 7, different lot aged 18 months, 15 min
  log reduction at 4 ppm: 2.4
ATCC36031, 0.25 h, Ex. 8, different batch aged 19 months at 25 °C, 15 min
  log reduction at 4 ppm: 3.6
ATCC36031, 0.5 h, Ex. 6, aged 19 months at 25 °C, 30 min
  log reduction at 4 ppm: 4.3
ATCC36031, 0.5 h, Ex. 7, different lot aged 18 months, 30 min
  log reduction at 4 ppm: > 4.5
ATCC36031, 0.5 h, Ex. 8, different batch aged 19 months at 25 °C, 30 min
  log reduction at 4 ppm: > 4.6
ATCC36031, 40 min, aged 18 months, Exp. 1, 40.0 min
  log reduction at 4 ppm: > 4.6
ATCC36031, 40 min, aged 18 months, Exp. 2, 40.0 min
  log reduction at 4 ppm: > 4.5
ATCC36031, 40 min, aged 18 months, Exp. 3, 40.0 min
  log reduction at 4 ppm: > 4.6
ATCC36031, 0.75 h, Ex. 6, aged 19 months at 25 °C, 45 min
  log reduction at 4 ppm: 4.4
ATCC36031, 0.75 h, Ex. 7, different lot aged 18 months, 45 min
  log reduction at 4 ppm: > 4.5
ATCC36031, 0.75 h, Ex. 8, different batch aged 19 months at 25 °C, 45 min
  log reduction at 4 ppm: > 4.6
ATCC36031, 1 h, 1 hr
  log reduction at 4 µg/mL: 3.1
ATCC36031, 1 h, Ex. 6, aged 19 months at 25 °C, 60 min
  log reduction at 4 ppm: 4.2
ATCC36031, 1 h, Ex. 7, different lot aged 18 months, 60 min
  log reduction at 4 ppm: > 4.5
ATCC36031, 1 h, Ex. 8, different batch aged 19 months at 25 °C, 60 min
  log reduction at 4 ppm: > 4.6
ATCC36031, 2 h, 2 hr
  log reduction at 4 µg/mL: 4.1
ATCC36031, 3 h, 3 hr
  log reduction at 4 µg/mL: 4.5
ATCC36031, 4 h, 4 hr
  log reduction at 4 µg/mL: 4.6
ATCC36031, 4 h, Ex. 6, aged 19 months at 25 °C, 4 h
  log reduction at 4 ppm: > 4.4
ATCC36031, 4 h, Ex. 7, different lot aged 18 months, 4 hrs
  log reduction at 4 ppm: > 4.5
ATCC36031, 4 h, Ex. 8, different batch aged 19 months at 25 °C, 4 hrs
  log reduction at 4 ppm: > 4.6
ATCC36031, 24 h, 24 hr
  log reduction at 4 µg/mL: > 4.6
